From ChEMBL document CHEMBL1139540, “Replacement of Phe6, Phe7, and Phe11 of D-Trp8-somatostatin-14 with L-pyrazinylalanine. Predicted and observed effects on binding affinities at hSST2 and hSST4. An unexpected effect of the chirality of Trp8 on NMR spectra in methanol” (J Med Chem, 2005)
Bridge positions count the residues as written; N and C are the ends. Peptide text beside a SMILES is read from it.

How the values were obtained:
[1] = target: T1, Somatostatin receptor type 2 (Homo sapiens, UniProt P30874); assay: Inhibition of human somatostatin receptor type 2 (n=6)
[2] = target: T1, Somatostatin receptor type 2; assay: Inhibition of human somatostatin receptor type 2
[3] = target: T2, Somatostatin receptor type 4 (Homo sapiens, UniProt P31391); assay: Inhibition of human somatostatin receptor type 4
[4] = target: T2, Somatostatin receptor type 4; assay: Inhibition of human somatostatin receptor type 4 (n=5)

T1 sequence (P30874 whole entry): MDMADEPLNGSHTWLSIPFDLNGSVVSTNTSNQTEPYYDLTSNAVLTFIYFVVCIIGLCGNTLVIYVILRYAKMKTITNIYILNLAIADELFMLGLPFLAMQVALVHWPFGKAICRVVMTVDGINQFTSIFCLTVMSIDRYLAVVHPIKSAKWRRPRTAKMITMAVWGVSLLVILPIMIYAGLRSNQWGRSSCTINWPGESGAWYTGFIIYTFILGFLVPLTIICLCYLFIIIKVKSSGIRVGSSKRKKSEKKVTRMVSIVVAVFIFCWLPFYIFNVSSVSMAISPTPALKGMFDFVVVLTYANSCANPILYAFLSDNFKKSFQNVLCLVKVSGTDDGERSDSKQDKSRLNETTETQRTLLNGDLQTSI
T2 sequence (P31391 whole entry): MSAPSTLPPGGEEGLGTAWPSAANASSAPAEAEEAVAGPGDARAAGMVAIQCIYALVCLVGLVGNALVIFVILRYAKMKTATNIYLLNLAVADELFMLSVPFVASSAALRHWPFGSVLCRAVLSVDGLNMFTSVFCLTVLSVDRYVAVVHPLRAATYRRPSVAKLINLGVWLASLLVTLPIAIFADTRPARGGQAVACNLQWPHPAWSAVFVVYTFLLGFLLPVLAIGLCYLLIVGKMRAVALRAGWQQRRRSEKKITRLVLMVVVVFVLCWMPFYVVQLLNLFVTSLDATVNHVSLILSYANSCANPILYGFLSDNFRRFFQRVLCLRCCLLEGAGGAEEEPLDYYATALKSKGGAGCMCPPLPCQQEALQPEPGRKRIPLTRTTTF

Structure (SMILES) | Ki [1] [nM] | Ki [2] [nM] | Ki [3] [nM] | Ki [4] [nM]
C[C@H](N)C(=O)NCC(=O)N[C@H]1CSSC[C@@H](C(=O)O)NC(=O)[C@H](CO)NC(=O)[C@H]([C@@H](C)O)NC(=O)[C@H](Cc2ccccc2)NC(=O)[C@H]([C@@H](C)O)NC(=O)[C@H](CCCCN)NC(=O)[C@@H](Cc2c[nH]c3ccccc23)NC(=O)[C@H](Cc2ccccc2)NC(=O)[C@H](Cc2cnccn2)NC(=O)[C@H](CC(N)=O)NC(=O)[C@H](CCCCN)NC1=O | 7 | 1 | 60 | 77
C[C@H](N)C(=O)NCC(=O)N[C@H]1CSSC[C@@H](C(=O)O)NC(=O)[C@H](CO)NC(=O)[C@H]([C@@H](C)O)NC(=O)[C@H](Cc2ccccc2)NC(=O)[C@H]([C@@H](C)O)NC(=O)[C@H](CCCCN)NC(=O)[C@@H](Cc2c[nH]c3ccccc23)NC(=O)[C@H](Cc2cnccn2)NC(=O)[C@H](Cc2ccccc2)NC(=O)[C@H](CC(N)=O)NC(=O)[C@H](CCCCN)NC1=O | – | > 1000 | 700 | –
C[C@H](N)C(=O)NCC(=O)N[C@H]1CSSC[C@@H](C(=O)O)NC(=O)[C@H](CO)NC(=O)[C@H]([C@@H](C)O)NC(=O)[C@H](Cc2cnccn2)NC(=O)[C@H]([C@@H](C)O)NC(=O)[C@H](CCCCN)NC(=O)[C@@H](Cc2c[nH]c3ccccc23)NC(=O)[C@H](Cc2ccccc2)NC(=O)[C@H](Cc2ccccc2)NC(=O)[C@H](CC(N)=O)NC(=O)[C@H](CCCCN)NC1=O | – | 1 | 124 | –
C[C@H](N)C(=O)NCC(=O)N[C@H]1CSSC[C@@H](C(N)=O)NC(=O)[C@H](CO)NC(=O)[C@H]([C@@H](C)O)NC(=O)[C@H](Cc2ccccc2)NC(=O)[C@H]([C@@H](C)O)NC(=O)[C@H](CCCCN)NC(=O)[C@H](Cc2c[nH]c3ccccc23)NC(=O)[C@H](Cc2ccccc2)NC(=O)[C@H](C)NC(=O)[C@H](CC(N)=O)NC(=O)[C@H](CCCCN)NC1=O (H-AGCKNAFWKTFTSC-NH2; disulfide 3-14) | – | – | 80 | –
C[C@H](N)C(=O)NCC(=O)N[C@H]1CSSC[C@@H](C(N)=O)NC(=O)[C@H](CO)NC(=O)[C@H]([C@@H](C)O)NC(=O)[C@H](C)NC(=O)[C@H]([C@@H](C)O)NC(=O)[C@H](CCCCN)NC(=O)[C@H](Cc2c[nH]c3ccccc23)NC(=O)[C@H](Cc2ccccc2)NC(=O)[C@H](Cc2ccccc2)NC(=O)[C@H](CC(N)=O)NC(=O)[C@H](CCCCN)NC1=O (H-AGCKNFFWKTATSC-NH2; disulfide 3-14) | – | – | < 1 | –
